Data reported in ChEMBL document CHEMBL6103594, “Synthesis and evolution of 16-membered macrolide carrimycin derivatives as a novel class of anti-HCoV-OC43 agents targeting viral FSE RNA” (Eur J Med Chem, 2025).
pEC50, pKd: −log10 of the molar value. Active and inactive are the calls of the source. The calls are words filed in the database; no cut-off is given here.

Tests used:
Human coronavirus OC43 [1] = experiment: Antiviral activity against HCoV-OC43; assay type: functional, organism-based
Human coronavirus 229E [2] = experiment: Antiviral activity against HCoV-229E; assay type: functional, organism-based
[3] = Cytotoxicity against human NCI-H460 cells incubated for 72 hrs by CCK8 assay; assay type: toxicity, cell-based; conditions: read-out: EC50
DIS3-like exonuclease 2 = molecular target: T1, DIS3-like exonuclease 2 (Homo sapiens, UniProt Q8IYB7); experiment: (§1) Binding affinity to DIS3L2 (unknown origin) assessed as dissociation constant by SPR analysis
T1 sequence (Q8IYB7 whole entry): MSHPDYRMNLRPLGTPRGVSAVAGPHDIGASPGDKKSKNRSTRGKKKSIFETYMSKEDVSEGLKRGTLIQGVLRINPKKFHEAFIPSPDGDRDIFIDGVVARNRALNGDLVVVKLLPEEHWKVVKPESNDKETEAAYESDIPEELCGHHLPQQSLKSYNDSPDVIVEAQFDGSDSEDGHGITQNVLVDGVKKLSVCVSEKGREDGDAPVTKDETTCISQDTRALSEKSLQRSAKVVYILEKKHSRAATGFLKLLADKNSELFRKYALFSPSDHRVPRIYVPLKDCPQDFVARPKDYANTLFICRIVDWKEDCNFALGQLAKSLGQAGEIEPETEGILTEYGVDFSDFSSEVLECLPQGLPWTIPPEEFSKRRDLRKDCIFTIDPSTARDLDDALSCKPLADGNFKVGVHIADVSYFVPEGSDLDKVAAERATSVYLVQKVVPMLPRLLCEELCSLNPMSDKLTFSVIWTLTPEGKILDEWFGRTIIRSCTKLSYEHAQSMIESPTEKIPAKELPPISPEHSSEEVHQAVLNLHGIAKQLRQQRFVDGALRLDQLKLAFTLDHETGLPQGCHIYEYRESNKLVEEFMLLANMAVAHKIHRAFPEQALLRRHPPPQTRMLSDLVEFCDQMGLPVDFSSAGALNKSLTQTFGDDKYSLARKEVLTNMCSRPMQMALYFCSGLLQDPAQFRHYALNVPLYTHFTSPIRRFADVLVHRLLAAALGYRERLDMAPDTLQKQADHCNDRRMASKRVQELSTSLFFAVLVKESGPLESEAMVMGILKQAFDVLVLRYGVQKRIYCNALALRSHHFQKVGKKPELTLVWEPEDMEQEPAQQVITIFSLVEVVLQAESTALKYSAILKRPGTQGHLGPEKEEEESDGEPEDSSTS

[4] = molecular target: T2, DIS3-like exonuclease 2 (Homo sapiens) (UniProt Q8IYB7); experiment: as §1
T2 sequence (whole entry): T1 sequence (Q8IYB7 whole entry)

Human coronavirus OC43 [5] = experiment: Antiviral activity against HCoV-OC43 infected in human NCI-H460 cells incubated for 72 hrs by CCK8 assay; assay type: functional, organism-based; conditions: Betacoronavirus 1, NCI-H460, 72 h
Human coronavirus 229E [6] = experiment: Antiviral activity against HCoV-229E at replication stage in human Huh-7 cells assessed as dsRNA level at 2 uM treated immediately after infection incubated for 4 to 10 hrs by immunofluorescence based analysis; assay type: functional, organism-based; conditions: time 4-10 hrs
Human coronavirus OC43 [7] = experiment: Antiviral activity against HCoV-OC43 at replication stage in human Huh-7 cells assessed as dsRNA level at 2 uM treated immediately after infection incubated for 4 to 10 hrs by immunofluorescence based analysis; assay type: functional, organism-based; conditions: time 4-10 hrs
[8] = molecular target: T2, DIS3-like exonuclease 2 (Homo sapiens); experiment: Binding affinity to DIS3L2 in human NCI-H460 cells assessed as increase in thermal stability at 10 uM incubated for 6 hrs followed by heat exposure at 55 to 75 degreeC for 3 mins by CETSA; assay type: cell-based; conditions: time 363.0 min
[9] = Selectivity index, ratio of CC50 for cytotoxicity against human NCI-H460 cells to EC50 for antiviral activity against HCoV-OC43 infected in human NCI-H460 cells; assay type: toxicity, cell-based, NCI-460; conditions: read-out: Ratio CC50/EC50
FSE RNA pseudoknot = experiment: Binding affinity to CM5 chip-immobilized coronavirus FSE RNA pseudoknot assessed as dissociation constant by SPR analysis; assay type: nucleic-acid assay, unidentified human coronavirus

| Compound | pEC50 (Human coronavirus OC43 [1]; Betacoronavirus 1) | pEC50 (Human coronavirus 229E [2]; Human coronavirus 229E) | CC50 at 72 h [3] [µM] | pEC50 (Human coronavirus OC43 [5]) | selectivity ratio [9] | further results |
| --- | --- | --- | --- | --- | --- | --- |
| CO[C@@H]1[C@@H](O[C@@H]2O[C@H](C)[C@@H](O[C@H]3C[C@@](C)(O)[C@@H](OC(=O)CC(C)C)[C@H](C)O3)[C@H](N(C)C)[C@H]2O)[C@@H](CC=O)C[C@@H](C)[C@@H](O[C@H]2CC[C@H](N(C)C)[C@@H](C)O2)/C=C/C=C/C[C@@H](C)OC(=O)C[C@H]1OC(C)=O | 4.93 | 5.20 |  |  |  |  |
| CO[C@@H]1[C@@H](O[C@@H]2O[C@H](C)[C@@H](O[C@H]3C[C@@](C)(O)[C@@H](OC(=O)CC(C)C)[C@H](C)O3)[C@H](N(C)C)[C@H]2O)[C@@H](CC=O)C[C@@H](C)[C@@H](O[C@H]2CC[C@H](N(C)C)[C@@H](C)O2)/C=C/C=C/C[C@@H](C)OC(=O)C[C@H]1O | 5.23 | 5.44 |  |  |  |  |
| CCC(=O)O[C@@H]1CC(=O)O[C@H](C)C/C=C/C=C/[C@H](O[C@H]2CC[C@H](N(C)C)[C@@H](C)O2)[C@H](C)C[C@H](CC=O)[C@H](O[C@@H]2O[C@H](C)[C@@H](O[C@H]3C[C@@](C)(O)[C@@H](OC(=O)CC(C)C)[C@H](C)O3)[C@H](N(C)C)[C@H]2O)[C@H]1OC | 4.99 | 5.45 |  |  |  |  |
| SPIRAMYCIN |  |  |  |  |  | pEC50 (Human coronavirus OC43 [1]): < 4.30; pEC50 (Human coronavirus 229E [2]): 4.53 |
| CO[C@@H]1[C@@H](O[C@@H]2O[C@H](C)[C@@H](O[C@H]3C[C@@](C)(O)[C@@H](OC(=O)Cc4ccc(Cl)cc4)[C@H](C)O3)[C@H](N(C)C)[C@H]2O)[C@@H](CC=O)C[C@@H](C)[C@@H](O[C@H]2CC[C@H](N(C)C)[C@@H](C)O2)/C=C/C=C/C[C@@H](C)OC(=O)C[C@H]1O |  |  | 17.4 | 6.07 | 20.5 | pKd (DIS3-like exonuclease 2): 5.33; Activity [4]: Dose-dependent-effect; Activity (Human coronavirus 229E [6]): Active; Activity (Human coronavirus OC43 [7]): Active; Activity [8]: Active; pKd (FSE RNA pseudoknot): 5.14; Activity (FSE RNA pseudoknot; unidentified human coronavirus): Dose-dependent-effect |
| CCC(=O)O[C@@H]1CC(=O)O[C@H](C)C/C=C/C=C/[C@H](O[C@H]2CC[C@H](N(C)C)[C@@H](C)O2)[C@H](C)C[C@H](CC=O)[C@H](O[C@@H]2O[C@H](C)[C@@H](O[C@H]3C[C@@](C)(O)[C@@H](O)[C@H](C)O3)[C@H](N(C)C)[C@H]2O)[C@H]1OC | < 4.30 | 4.56 |  |  |  |  |
| CO[C@@H]1[C@@H](O[C@@H]2O[C@H](C)[C@@H](O[C@H]3C[C@@](C)(O)[C@@H](O)[C@H](C)O3)[C@H](N(C)C)[C@H]2O)[C@@H](CC=O)C[C@@H](C)[C@@H](O[C@H]2CC[C@H](N(C)C)[C@@H](C)O2)/C=C/C=C/C[C@@H](C)OC(=O)C[C@H]1OC(C)=O | < 4.30 | 4.60 |  |  |  |  |
| CCCCC(=O)O[C@H]1[C@H](C)O[C@@H](O[C@H]2[C@H](N(C)C)[C@@H](O)[C@H](O[C@H]3[C@@H](CC=O)C[C@@H](C)[C@@H](O[C@H]4CC[C@H](N(C)C)[C@@H](C)O4)/C=C/C=C/C[C@@H](C)OC(=O)C[C@@H](O)[C@@H]3OC)O[C@@H]2C)C[C@@]1(C)O |  |  | 34 | 5.25 | 6.1 |  |
| CO[C@@H]1[C@@H](O[C@@H]2O[C@H](C)[C@@H](O[C@H]3C[C@@](C)(O)[C@@H](O)[C@H](C)O3)[C@H](N(C)C)[C@H]2OC(=O)CCc2ccccc2)[C@@H](CC=O)C[C@@H](C)[C@@H](O[C@H]2CC[C@H](N(C)C)[C@@H](C)O2)/C=C/C=C/C[C@@H](C)OC(=O)C[C@H]1O |  |  | 18.9 | 5.41 | 4.8 |  |
| COc1ccc(CCC(=O)O[C@H]2[C@H](O[C@H]3[C@@H](CC=O)C[C@@H](C)[C@@H](O[C@H]4CC[C@H](N(C)C)[C@@H](C)O4)/C=C/C=C/C[C@@H](C)OC(=O)C[C@@H](O)[C@@H]3OC)O[C@H](C)[C@@H](O[C@H]3C[C@@](C)(O)[C@@H](O)[C@H](C)O3)[C@@H]2N(C)C)cc1 |  |  | 13.8 | 5.34 | 3 |  |
